Laboratory results as given in ChEMBL document CHEMBL3228010, “Potential antitumor agents. 29. Quantitative structure-activity relationships for the antileukemic bisquaternary ammonium heterocycles” (J Med Chem, 1979).
Values joined by “and” are separate entries in the source; they are usually repeats but may differ in a detail not shown here. Identical values can stand only once.

Assays:
[1] = test system: L1210; assay: Antitumor activity against mouse L1210 cells […] in ip dosed C3H X DBA2 F1 hybrid mouse on day 0 and dosed at LD10 level once daily on days 1 to 5 assessed as increase in life span relative to control; type: functional
[2] = species on record: Bos taurus; assay: Displacement of ethidium from calf thymus DNA by fluorimetric method
[3] = test system: Mus musculus; assay: Toxicity in ip dosed C3H X DBA2 F1 hybrid mouse […] with mouse L1210 cells on day 0 and dosed once daily on days 1 to 5 measured after 50 days; type: organism-based; conditions: in vivo, 1200 h
[4] = test system: L1210; assay: Antitumor activity against mouse L1210 cells […] in ip dosed C3H X DBA2 F1 hybrid mouse on day 0 and dosed once daily on days 1 to 5 assessed as increase in life span relative to control; type: functional
[5] = Lipophilic-hydrophilic balance, Rm of the compound by partition chromatography; type: physicochemical
[6] = Displacement of ethidium from poly[d(A)]-poly[d(T)] DNA (unknown origin) by fluorimetric method
[7] = Displacement of ethidium from poly[d(A-T)]-poly[d(A-T)] DNA by fluorimetric method
[8] = Displacement of ethidium from poly[d(G-C)]-poly[d(G-C)] DNA (unknown origin) by fluorimetric method

Row | Compound | log(ILSmax) [1] | C50 [2] | LD10 [3] | D40 [4] | Rm [5] | C50 [6] | C50 [7] | C50 [8]
1 | C[n+]1cccc(-c2ccc(NC(=O)c3ccc(C(=O)Nc4ccc(-c5ccc(-c6ccc(-c7ccc[n+](C)c7)cc6)cc5)cc4)cc3)cc2)c1.Cc1ccc(S(=O)(=O)[O-])cc1.Cc1ccc(S(=O)(=O)[O-])cc1 | 2.1 | 0.29 µM | 65 mg/kg | 17.9 mg/kg | -0.75 | 0.16 µM | 0.22 µM | 0.37 µM
2 | CCC[n+]1cccc(NC(=O)c2ccc(NC(=O)c3ccc(C(=O)Nc4ccc(C(=O)Nc5ccc[n+](CCC)c5)cc4)cc3)cc2)c1.Cc1ccc(S(=O)(=O)[O-])cc1.Cc1ccc(S(=O)(=O)[O-])cc1 | 2.06 | 0.44 µM | 27 mg/kg | 12.9 mg/kg | 0.13 | 0.12 µM | 0.39 µM | 0.9 µM
3 | C[n+]1ccc(Nc2ccc(NC(=O)c3ccc(Nc4cc[n+](C)c5ccc(N)cc45)cc3)cc2)cc1.[Br-].[Br-] | 2.35 | 0.66 µM | 12 mg/kg | 1.2 mg/kg | 0.07 | 0.048 µM | 0.09 µM | 1.05 µM
4 | C[n+]1cccc(NC(=O)c2ccc(C(=O)Nc3ccc[n+](C)c3)cc2)c1.Cc1ccc(S(=O)(=O)[O-])cc1.Cc1ccc(S(=O)(=O)[O-])cc1 | <1.4 | 61 µM | 5 mg/kg |  | 0 | 3.8 µM | 63 µM | 80 µM
5 | C[n+]1cccc(NC(=O)c2ccc(NC(=O)c3ccc(C(=O)Nc4ccc(C(=O)Nc5ccc[n+](C)c5)cc4)cc3)cc2)c1 |  | 0.83 µM and 0.42 µM |  |  |  | 0.13 µM | 0.79 µM and 0.41 µM | 1.6 µM and 0.91 µM
6 | C[n+]1cccc(NC(=O)c2ccc(NC(=O)c3ccc(C(=O)Nc4ccc[n+](C)c4)cc3)cc2)c1.Cc1ccc(S(=O)(=O)[O-])cc1.Cc1ccc(S(=O)(=O)[O-])cc1 | <1.4 | 11.2 µM | 4 mg/kg |  | -0.11 | 0.325 µM | 7.7 µM | 22 µM
7 | C[n+]1cccc(NC(=O)c2ccc(NC(=O)c3ccc(C(=O)Nc4ccc(C(=O)Nc5ccc[n+](C)c5)c5ccccc45)cc3)cc2)c1.Cc1ccc(S(=O)(=O)[O-])cc1.Cc1ccc(S(=O)(=O)[O-])cc1 | 1.65 | 2.2 µM | 75 mg/kg | 72 mg/kg | 0.08 |  | 2.3 µM | 2.6 µM
8 | Cc1cc(C(=O)Nc2ccc(C(=O)Nc3ccc[n+](C)c3)cc2)ccc1C(=O)Nc1ccc(C(=O)Nc2ccc[n+](C)c2)cc1.Cc1ccc(S(=O)(=O)[O-])cc1.Cc1ccc(S(=O)(=O)[O-])cc1 | 2.09 | 1.2 µM | 14 mg/kg | 5.7 mg/kg | 0.06 |  | 1 µM | 2.4 µM
9 | CC[n+]1cc(-c2ccc(NC(=O)c3ccc(C(=O)Nc4ccc(-c5c[n+](CC)c(N)nc5N)cc4)cc3)cc2)c(N)nc1N.Cc1ccc(S(=O)(=O)[O-])cc1.Cc1ccc(S(=O)(=O)[O-])cc1 | 2.17 | 0.84 µM | 15 mg/kg | 3.5 mg/kg | -0.19 |  | 0.45 µM | 2.1 µM
10 | C[n+]1cccc(NC(=O)c2ccc(NC(=O)c3ccc(C(=O)Nc4ccc(C(=O)Nc5ccc[n+](C)c5)c(N)c4)cc3N)cc2)c1.Cc1ccc(S(=O)(=O)[O-])cc1.Cc1ccc(S(=O)(=O)[O-])cc1 | 2.32 | 0.39 µM | 9 mg/kg | 1.4 mg/kg | -0.7 |  | 0.15 µM | 0.54 µM
11 | C[n+]1ccc(Nc2ccc(NC(=O)/C=C/c3ccc(Nc4cc[n+](C)c5ccc(N)cc45)cc3)cc2)cc1.Cc1ccc(S(=O)(=O)[O-])cc1.Cc1ccc(S(=O)(=O)[O-])cc1 | 2.24 | 0.46 µM | 40 mg/kg | 1.6 mg/kg | 0.03 |  | 0.09 µM | 0.41 µM
12 | Br.C/C(=N\NC(=N)N)c1ccc(C(=O)Nc2ccc(Nc3cc[n+](C)c4cc(N)ccc34)cc2)cc1.[Br-] | 2.28 | 0.35 µM | 165 mg/kg | 30 mg/kg | -0.35 |  | 0.17 µM | 0.6 µM
13 | C[n+]1ccc(Nc2ccc(NC(=O)c3ccc(C(=O)Nc4ccc(Nc5cc[n+](C)c(N)n5)cc4)cc3)cc2)nc1N.Cc1ccc(S(=O)(=O)[O-])cc1.Cc1ccc(S(=O)(=O)[O-])cc1 | 2.2 | 0.45 µM | 75 mg/kg | 8.6 mg/kg | -0.64 |  | 0.29 µM | 0.64 µM
14 | C(=C\c1ccc(-[n+]2ccccc2)cc1)/c1ccc(/C=C/c2ccc(-[n+]3ccccc3)cc2)cc1.Cc1ccc(S(=O)(=O)[O-])cc1.Cc1ccc(S(=O)(=O)[O-])cc1 | 1.95 | 0.76 µM | 7 mg/kg | 1.6 mg/kg | 0.05 |  | 0.2 µM | 2.1 µM
15 | C[n+]1ccc(Nc2ccc(NC(=O)/C=C/c3ccc(C(=O)Nc4ccc(Nc5cc[n+](C)cc5)cc4)cc3)cc2)cc1.Cc1ccc(S(=O)(=O)[O-])cc1.Cc1ccc(S(=O)(=O)[O-])cc1 | 2.28 | 0.43 µM | 11 mg/kg | 4.2 mg/kg | -0.34 |  | 0.14 µM | 0.51 µM
16 | C[n+]1cccc(NC(=O)c2ccc(NC(=O)c3cccc(C(=O)Nc4ccc(C(=O)Nc5ccc[n+](C)c5)cc4)c3)cc2)c1.Cc1ccc(S(=O)(=O)[O-])cc1.Cc1ccc(S(=O)(=O)[O-])cc1 | 1.85 | 0.9 µM | 35 mg/kg | 25 mg/kg | 0.2 |  | 1.2 µM | 1.9 µM
17 | CCC[n+]1ccc(Nc2ccc(NC(=O)c3ccc(Nc4cc[n+](CCC)c5ccc(N)cc45)cc3)cc2)cc1.[Br-].[Br-] | 2.07 | 0.68 µM | 10 mg/kg | 1.8 mg/kg | 0.46 |  | 0.1 µM | 1.1 µM
18 | Cc1c(C(=O)Nc2ccc(C(=O)Nc3ccc[n+](C)c3)cc2)ccc(C(=O)Nc2ccc(C(=O)Nc3ccc[n+](C)c3)cc2)c1C.Cc1ccc(S(=O)(=O)[O-])cc1.Cc1ccc(S(=O)(=O)[O-])cc1 | 1.65 | 6.9 µM | 19 mg/kg | 14.7 mg/kg | 0.47 |  | 5.4 µM | 12 µM
19 | CC[n+]1cccc(NC(=O)c2ccc(NC(=O)c3ccc(C(=O)Nc4ccc5c(ccc[n+]5CC)c4)cc3)cc2)c1.Cc1ccc(S(=O)(=O)[O-])cc1.Cc1ccc(S(=O)(=O)[O-])cc1 | 2.2 | 0.74 µM | 9 mg/kg | 2.3 mg/kg | 0.09 |  | 0.62 µM | 1.48 µM
20 | Br.C/C(=N\NC(=N)N)c1ccc(NC(=O)c2ccc(Nc3cc[n+](C)c4ccc(N)cc34)cc2N)cc1.[Br-] | 2.25 | 0.51 µM | 40 mg/kg | 1.7 mg/kg | -0.41 |  | 0.21 µM | 0.78 µM
21 | C[n+]1ccccc1Nc1ccc(NC(=O)c2ccc(C(=O)Nc3ccc(Nc4cccc[n+]4C)cc3)cc2)cc1.Cc1ccc(S(=O)(=O)[O-])cc1.Cc1ccc(S(=O)(=O)[O-])cc1 | <1.4 | 5.6 µM | 16 mg/kg |  | 0.13 | 0.15 µM | 2.8 µM | 8.8 µM
22 | C[n+]1ccc(Nc2ccc(NC(=O)c3ccc(-c4ccc(Nc5cc[n+](C)cc5)cc4)cc3)cc2)cc1.[I-].[I-] | 2.28 | 2.04 µM | 2.6 mg/kg | 0.6 mg/kg | 0.06 |  | 0.37 µM | 3.01 µM
23 | C[n+]1ccc(Nc2ccc(C(=O)Nc3ccc(Nc4cc[n+](C)c5ccccc45)cc3)cc2)cc1.Cc1ccc(S(=O)(=O)[O-])cc1.Cc1ccc(S(=O)(=O)[O-])cc1 | 2.29 | 1.6 µM | 7.5 mg/kg | 2.2 mg/kg | 0.27 |  | 0.21 µM | 3 µM
24 | C[n+]1cccc(NC(=O)c2ccc(NC(=O)c3ccc(C(=O)Nc4ccc(N/N=N/c5ccc(C(=N)N)cc5)cc4)cc3)cc2)c1.Cc1ccc(S(=O)(=O)O)cc1.Cc1ccc(S(=O)(=O)[O-])cc1 | 2.1 | 0.48 µM | 35 mg/kg | 6 mg/kg | -0.77 |  | 0.22 µM | 0.64 µM
25 | Cc1ccc(S(=O)(=O)[O-])cc1.Cc1ccc(S(=O)(=O)[O-])cc1.Cc1ccc2c(c1)c(Nc1ccc(C(=O)Nc3ccc(Nc4cc[n+](C)cc4)cc3)cc1)cc[n+]2C | 2.17 | 1.05 µM | 15 mg/kg | 1 mg/kg | 0.51 |  | 0.17 µM | 2.28 µM
26 | C[n+]1ccc(Nc2ccc(NC(=O)c3ccc(Nc4c(-c5ccccc5)c[n+](C)c5ccc(N)cc45)cc3)cc2)cc1.[Br-].[Br-] | 1.78 | 0.39 µM | 22 mg/kg | 10 mg/kg | 0.65 |  | 0.15 µM | 0.63 µM
